Measurements as given in ChEMBL document CHEMBL3608254, “Discovery of novel triazolobenzazepinones as γ-secretase modulators with central Aβ42 lowering in rodents and rhesus monkeys” (Bioorg Med Chem Lett, 2015).
The source made the active and inactive calls. The rule behind the calls is not given here.

Columns and labels:
[1] = target: Gamma-secretase; assay: Inhibition of gamma-secretase in human SH-SY5Y cells expressing beta-APP C-terminal fragment SPA4CT assessed as decrease of amyloid beta-40 level by electrochemiluminescent method; format: cell-based
[2] = target: Gamma-secretase; assay: Inhibition of gamma-secretase in human SH-SY5Y cells expressing beta-APP C-terminal fragment SPA4CT assessed as decrease of amyloid beta-42 level by electrochemiluminescent method; format: cell-based
[3] = Inhibition of gamma-secretase-mediated cleavage of NotchdeltaE in human HeLa cells expressing NotchdeltaE assessed as intracellular release of Notch intracellular domain (NICD)/N-terminal luciferase by luminescent method; format: cell-based
[4] = system: Rattus norvegicus; assay: Antialzheimer's disease activity in po dosed Sprague-Dawley rat assessed as reduction of amyloid beta-40/42 level in brain measured after 6 hrs; format: functional
[5] = system: Mus musculus; assay: Antialzheimer's disease activity in po dosed APP-YAC transgenic mouse assessed as reduction of amyloid beta-40/42 level in brain measured after 6 hrs; format: functional
[6] = target: Voltage-gated inwardly rectifying potassium channel KCNH2 (Homo sapiens, UniProt Q12809)
Voltage-gated inwardly rectifying potassium channel KCNH2, sequence (Q12809 whole entry): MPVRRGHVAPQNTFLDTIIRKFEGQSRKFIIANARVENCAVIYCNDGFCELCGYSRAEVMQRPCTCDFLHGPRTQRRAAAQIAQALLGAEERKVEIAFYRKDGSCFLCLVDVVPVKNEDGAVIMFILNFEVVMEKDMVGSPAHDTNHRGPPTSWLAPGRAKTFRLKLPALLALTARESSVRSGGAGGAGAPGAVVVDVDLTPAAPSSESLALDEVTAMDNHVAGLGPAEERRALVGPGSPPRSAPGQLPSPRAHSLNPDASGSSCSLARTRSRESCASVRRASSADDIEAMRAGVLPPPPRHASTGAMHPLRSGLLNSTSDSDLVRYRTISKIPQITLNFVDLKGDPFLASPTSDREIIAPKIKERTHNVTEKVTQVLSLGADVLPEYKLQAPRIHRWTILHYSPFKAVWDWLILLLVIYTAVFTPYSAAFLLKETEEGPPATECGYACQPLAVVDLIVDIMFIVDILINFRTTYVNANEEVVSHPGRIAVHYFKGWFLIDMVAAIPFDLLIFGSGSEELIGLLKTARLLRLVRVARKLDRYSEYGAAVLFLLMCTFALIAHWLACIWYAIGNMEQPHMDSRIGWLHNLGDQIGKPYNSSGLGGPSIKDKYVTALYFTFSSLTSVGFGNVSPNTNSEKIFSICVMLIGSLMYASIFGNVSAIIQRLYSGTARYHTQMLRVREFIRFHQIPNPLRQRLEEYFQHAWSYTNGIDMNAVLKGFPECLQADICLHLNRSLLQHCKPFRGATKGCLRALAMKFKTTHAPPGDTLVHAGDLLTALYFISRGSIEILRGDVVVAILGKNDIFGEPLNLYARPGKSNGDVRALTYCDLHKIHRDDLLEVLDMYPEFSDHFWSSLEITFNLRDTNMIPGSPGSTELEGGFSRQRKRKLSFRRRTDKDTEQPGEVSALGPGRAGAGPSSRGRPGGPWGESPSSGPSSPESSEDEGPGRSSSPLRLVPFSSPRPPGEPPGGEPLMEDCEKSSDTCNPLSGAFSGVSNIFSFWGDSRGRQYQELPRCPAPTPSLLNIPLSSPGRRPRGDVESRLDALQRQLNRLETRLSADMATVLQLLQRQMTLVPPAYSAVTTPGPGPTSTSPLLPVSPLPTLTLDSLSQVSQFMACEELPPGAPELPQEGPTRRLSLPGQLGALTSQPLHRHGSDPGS
Description: Binding affinity to human ERG expressed in HEK cells by MK-499 radioligand displacement assay

[7] = target: Sodium-dependent serotonin transporter (Homo sapiens, UniProt P31645); assay: Inhibition of SERT (unknown origin)
Sodium-dependent serotonin transporter, sequence (P31645 whole entry, looked up): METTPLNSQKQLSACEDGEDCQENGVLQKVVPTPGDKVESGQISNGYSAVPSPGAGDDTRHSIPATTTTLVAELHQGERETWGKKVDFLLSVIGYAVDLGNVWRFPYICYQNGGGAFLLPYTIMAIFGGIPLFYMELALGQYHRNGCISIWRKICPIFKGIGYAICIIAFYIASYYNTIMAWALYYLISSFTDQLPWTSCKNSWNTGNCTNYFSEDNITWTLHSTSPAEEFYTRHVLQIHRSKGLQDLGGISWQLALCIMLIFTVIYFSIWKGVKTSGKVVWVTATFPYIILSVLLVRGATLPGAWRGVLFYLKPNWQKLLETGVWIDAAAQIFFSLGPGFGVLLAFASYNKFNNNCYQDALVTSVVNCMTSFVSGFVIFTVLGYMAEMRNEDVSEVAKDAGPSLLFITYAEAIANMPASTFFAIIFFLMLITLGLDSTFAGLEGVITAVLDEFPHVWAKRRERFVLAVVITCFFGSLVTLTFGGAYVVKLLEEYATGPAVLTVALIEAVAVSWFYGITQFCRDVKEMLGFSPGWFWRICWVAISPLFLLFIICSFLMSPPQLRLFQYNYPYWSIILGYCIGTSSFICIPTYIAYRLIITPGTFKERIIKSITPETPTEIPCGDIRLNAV

Structure (SMILES) | IC50 [1] | IC50 [2] | IC50 [3] | Activity [4] | Activity [5] | IC50 [6] | inhibition [7]
COc1cc(-c2cn(C3CCc4ccccc4N(Cc4ccncc4)C3=O)nn2)ccc1-n1cnc(C)c1 (racemic) | 6750 nM | 1190 nM | > 50000 nM |  |  |  | 
COc1cc(-c2cn(C3CCc4ccccc4N(Cc4ccccn4)C3=O)nn2)ccc1-n1cnc(C)c1 (racemic) | 5400 nM | 1080 nM | > 50000 nM |  |  |  | 
COc1cc(-c2cn(C3CCc4c(ccc5ccccc45)N(CC(F)(F)F)C3=O)nn2)ccc1-n1cnc(C)c1 (configuration not stated) | 70 nM | 30 nM | > 50000 nM | Active | Active |  | 
COc1cc(-c2cn(C3CCc4ccccc4N(CC4(C)COC4)C3=O)nn2)ccc1-n1cnc(C)c1 (racemic) | 7480 nM | 1250 nM | > 50000 nM |  |  |  | 
COc1cc(-c2cn(C3CCc4c(F)cc(F)cc4N(CC(F)(F)F)C3=O)nn2)ccc1-n1cnc(C)c1 (configuration not stated) | 150 nM | 40 nM | > 50000 nM | Active | Active |  | 
COc1cc(-c2cn(C3CCc4cccnc4N(CC(F)(F)F)C3=O)nn2)ccc1-n1cnc(C)c1 (configuration not stated) | 1340 nM | 180 nM | > 50000 nM | Active | Active | 8740 nM | 
COc1cc(-c2cn(C3CCc4ccccc4N(C)C3=O)nn2)ccc1-n1cnc(C)c1 (configuration not stated) | 3080 nM | 430 nM | > 50000 nM |  |  |  | 
COc1cc(-c2cn(C3CCc4ncccc4N(CC(F)(F)F)C3=O)nn2)ccc1-n1cnc(C)c1 (configuration not stated) | 940 nM | 150 nM | 41800 nM | Active | Active | > 50000 nM | inactive
COc1cc(-c2cn(C3CCc4cc(F)ccc4N(CC(F)(F)F)C3=O)nn2)ccc1-n1cnc(C)c1 (configuration not stated) | 190 nM | 40 nM | 34100 nM | Active | Active | 2680 nM | 
COc1cc(-c2cn(C3CCc4ccccc4N(CC4CC4)C3=O)nn2)ccc1-n1cnc(C)c1 (configuration not stated) | 3980 nM | 370 nM | 25600 nM |  |  |  | 
COc1cc(-c2cn(C3CCc4ccccc4N(Cc4cccnc4)C3=O)nn2)ccc1-n1cnc(C)c1 (racemic) | 4690 nM | 880 nM | > 50000 nM |  |  |  | 
